Measurements: US20090270350A1, “Pyridinone Pyrazole Urea and Pyrimidinone Pyrazole Urea Derivatives” (PFIZER INC., priority 2006, published 2009)
pIC50: −log10 of the molar value.

target: p38α (Homo sapiens, UniProt Q16539); test: p38α/MK2 cascade assay; assay type: biochemical; conditions: Table 1; inhibitors preincubated with p38α for 40 minutes; phosphorylation of Hsp27 peptide by MK-2, Caliper LabChip 3000; read-out: p38a/MK2 Cascade 40 min Pre-Incuabtion (% Inhibition): IC50
Procedure: The ability of compounds to inhibit activated p38α was determined in a p38α/MK-2 cascade assay format. The kinase activity of p38α is determined by its ability to phosphorylate/activate nonactive MK2 (54-400). Activation of MK-2 by p38α is measured by following the phosphorylation of a MK-2 specific peptide, Hsp27 peptide (FITC-KKKALSRQLSVAA). The phosphorylation of the Hsp27 peptide was quantified using the Caliper LabChip 3000. The kinase reactions were carried out in 20 mM HEPES pH 7.5, 10 mM MgCl2, 0.0005% Tween-20, 0.01% BSA, 1 mM DTT, and 2% DMSO. The inhibitors were varied between 1000-0.05 nM, while the Hsp27 peptide substrate, MgATP, and nonactive MK-2 (54-400) were held constant at 0.5 µM, 5 µM, and 1 nM, respectively. Inhibitors were preincubated with p38α for 40 minutes prior to initiating the reaction with peptide, MgATP, and MK-2. The kinase reactions were quenched after 60 minutes by the addition of stop buffer (180 mM HEPES, 30 mM EDTA, and 0.2% Coating Reagent-3).
The above protocol assay was used to determine the IC50 values for some of the compounds in the above Examples.
IC50 values were determined for the compounds listed in Table 2, using the same p38α/MK2 cascade assay used to determine the IC50 values for the compounds in Table 1. The compounds of Table 2 were prepared using methods similar to those listed in the Examples for compounds of Table 1.

p38α, sequence (Q16539 whole entry): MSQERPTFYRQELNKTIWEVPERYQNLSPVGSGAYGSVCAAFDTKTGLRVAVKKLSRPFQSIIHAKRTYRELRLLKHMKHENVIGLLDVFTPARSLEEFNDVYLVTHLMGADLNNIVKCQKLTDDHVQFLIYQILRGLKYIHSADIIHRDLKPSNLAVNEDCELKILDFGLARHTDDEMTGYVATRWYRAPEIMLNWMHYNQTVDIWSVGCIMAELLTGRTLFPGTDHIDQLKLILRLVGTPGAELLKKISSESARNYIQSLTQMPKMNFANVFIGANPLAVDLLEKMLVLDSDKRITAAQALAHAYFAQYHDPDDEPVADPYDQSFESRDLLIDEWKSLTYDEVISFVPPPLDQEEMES

Row | Structure (SMILES) | pIC50
1 | Cc1cc(OCc2ccccc2CNC(=O)Nc2cc(C(C)(C)C)nn2-c2cccc(F)c2)c(Br)c(=O)n1Cc1ccccc1 [Example 103, 1-(2-{[(1-benzyl-3-bromo-6-methyl-2-oxo-1,2-dihydropyridin-4-yl)oxy]methyl}benzyl)-3-[3-tert-butyl-1-(3-fluorophenyl)-1H-pyrazol-5-yl]urea] | 8.58
2 | COc1cccc(Cn2c(C)cc(OCc3ccccc3CNC(=O)Nc3cc(C(C)(C)C)nn3-c3ccc(Cl)c(O)c3)c(C)c2=O)c1 [Example 47, 1-[3-tert-butyl-1-(4-chloro-3-hydroxyphenyl)-1H-pyrazol-5-yl]-3-[2-({[1-(3-methoxybenzyl)-3,6-dimethyl-2-oxo-1,2-dihydropyridin-4-yl]oxy}methyl)benzyl]urea] | 7.91
3 | COc1cccc(Cn2c(C)cc(OCc3ccc(F)cc3CNC(=O)Nc3cc(C(C)(C)C)nn3-c3cccc(O)c3)c(Cl)c2=O)c1 [Example 50, 1-[3-tert-butyl-1-(3-hydroxyphenyl)-1H-pyrazol-5-yl]-3-[2-({[3-chloro-1-(3-methoxybenzyl)-6-methyl-2-oxo-1,2-dihydropyridin-4-yl]oxy}methyl)-5-fluorobenzyl]urea] | 8.19
4 | COc1ccc(Cn2c(C)cc(OCc3ccccc3CNC(=O)Nc3cc(C(C)(C)C)nn3-c3cccc(Cl)c3)c(Br)c2=O)cc1 [Example 98] | 8.37
5 | COC(=O)c1ccc(C)c(-n2c(C)cc(OCc3ccc(F)cc3CNC(=O)Nc3cc(C(C)(C)C)nn3-c3cccc(Cl)c3)c(Cl)c2=O)c1 [Example 182, Methyl 3-{4-[(2-{[({[3-tert-butyl-1-(3-chlorophenyl)-1H-pyrazol-5-yl]amino}carbonyl)amino]methyl}-4-fluorobenzyl)oxy]-3-chloro-6-methyl-2-oxopyridin-1(2H)-yl}-4-methylbenzoate] | 8.40
6 | CCc1c(OCc2ccccc2CNC(=O)Nc2cc(C(C)(C)C)nn2-c2ccccc2)ncn(Cc2ccccc2)c1=O [Example 113, 1-(2-{[(1-benzyl-5-ethyl-6-oxo-1,6-dihydropyrimidin-4-yl)oxy]methyl}benzyl)-3-(3-tert-butyl-1-phenyl-1H-pyrazol-5-yl)urea] | 8.00
7 | COc1ccc(Cn2c(C)cc(OCc3ccccc3CNC(=O)Nc3cc(C(C)(C)C)nn3-c3ccc(F)cc3F)c(Br)c2=O)c(OC)c1 [Example 121, 1-[2-({[3-bromo-1-(2,4-dimethoxybenzyl)-6-methyl-2-oxo-1,2-dihydropyridin-4-yl]oxy}methyl)benzyl]-3-[3-tert-butyl-1-(2,4-difluorophenyl)-1H-pyrazol-5-yl]urea] | 7.96
8 | COc1cccc(Cn2c(C)cc(OCc3ccc(F)cc3CNC(=O)Nc3cc(C(C)(C)C)nn3-c3ccc(Cl)c(O[Si](C)(C)C(C)(C)C)c3)c(Cl)c2=O)c1 [Example 43, 1-[3-tert-butyl-1-(3-{[tert-butyl(dimethyl)silyl]oxy}-4-chlorophenyl)-1H-pyrazol-5-yl]-3-[2-({[3-chloro-1-(3-methoxybenzyl)-6-methyl-2-oxo-1,2-dihydropyridin-4-yl]oxy}methyl)-5-fluorobenzyl]urea] | 7.37
9 | COc1cccc(Cn2c(C)cc(OCc3ccccc3CNC(=O)Nc3cc(C(C)(C)C)nn3-c3cccc(OCCO)c3)cc2=O)c1 [Example 38, 1-{3-tert-butyl-1-[3-(2-hydroxyethoxy)phenyl]-1H-pyrazol-5-yl}-3-[2-({[1-(3-methoxybenzyl)-6-methyl-2-oxo-1,2-dihydropyridin-4-yl]oxy}methyl)benzyl]urea] | 7.51
10 | COc1cccc(Cn2c(C)cc(OCc3ccc(F)cc3CNC(=O)Nc3cc(C(C)(C)C)nn3-c3cccc(OCCOC4CCCCO4)c3)c(Cl)c2=O)c1 (stereo not drawn) [Example 41, 1-(3-tert-butyl-1-{3-[2-(tetrahydro-2H-pyran-2-yloxy)ethoxy]phenyl}-1H-pyrazol-5-yl)-3-[2-({[3-chloro-1-(3-methoxybenzyl)-6-methyl-2-oxo-1,2-dihydropyridin-4-yl]oxy}methyl)-5-fluorobenzyl]urea] | 7.67
11 | COc1cccc(Cn2c(C)cc(OCc3ccc(F)cc3CNC(=O)Nc3cc(C(C)(C)C)nn3-c3cccc(OCCOC4CCCCO4)c3)cc2=O)c1 (stereo not drawn) [Example 34, 1-(3-tert-butyl-1-{3-[2-(tetrahydro-2H-pyran-2-yloxy)ethoxy]phenyl}-1H-pyrazol-5-yl)-3-[5-fluoro-2-({[1-(3-methoxybenzyl)-6-methyl-2-oxo-1,2-dihydropyridin-4-yl]oxy}methyl)benzyl]urea] | 6.58

same assay, conditions: Table 2; same p38α/MK2 cascade assay; 40 minutes preincubation; read-out: p38a/MK2 Cascade 40 min Pre-Incuabtion (% Inhibition): IC50

Row | Structure (SMILES) | pIC50
12 | COC(=O)c1ccc(C)c(-n2c(C)cc(OCc3ccccc3CNC(=O)Nc3cc(C(C)(C)C)nn3-c3ccc(C)cc3)c(Cl)c2=O)c1 [Example 205, methyl 3-{4-[(2-{[({[3-tert-butyl-1-(4-methylphenyl)-1H-pyrazol-5-yl]amino}carbonyl)-amino]methyl}benzyl)oxy]-3-chloro-6-methyl-2-oxopyridin-1(2H)-yl}-4-methylbenzoate] | 8.60
13 | Cc1ccc(C(=O)N[C@@H](C)C(N)=O)cc1-n1c(C)cc(OCc2ccccc2CNC(=O)Nc2cc(C(C)(C)C)nn2-c2ccc(O)cc2)c(Cl)c1=O [Example 220, N-[(1S)-2-amino-1-methyl-2-oxoethyl]-3-{4-[(2-{[({[3-tert-butyl-1-(4-hydroxyphenyl)-1H-pyrazol-5-yl]amino}carbonyl)-amino]methyl}benzyl)oxy]-3-chloro-6-methyl-2-oxopyridin-1(2H)-yl}-4-methylbenzamide] | 8.85
14 | COCCNC(=O)c1ccc(C)c(-n2c(C)cc(OCc3ccccc3CNC(=O)Nc3cc(C(C)(C)C)nn3-c3ccc(Cl)c(O)c3)c(Cl)c2=O)c1 [Example 230, 3-{4-[(2-{[({[3-tert-butyl-1-(4-chloro-3-hydroxyphenyl)-1H-pyrazol-5-yl]amino}carbonyl)amino]methyl}benzyl)oxy]-3-chloro-6-methyl-2-oxopyridin-1(2H)-yl}-N-(2-methoxyethyl)-4-methylbenzamide] | 8.72
15 | CSc1ccccc1Cn1c(C)cc(OCc2ccccc2CNC(=O)Nc2cc(C(C)(C)C)nn2-c2ccc(O)cc2)c(C)c1=O [Example 241, 1-[3-tert-butyl-1-(4-hydroxyphenyl)-1H-pyrazol-5-yl]-3-{2-[({3,6-dimethyl-1-[2-(methylthio)benzyl]-2-oxo-1,2-dihydro-pyridin-4-yl}oxy)methyl]benzyl}urea] | 7.87
16 | COCCNC(=O)c1ccc(C)c(-n2c(C)cc(OCc3ccc(F)cc3CNC(=O)Nc3cc(C(C)(C)C)nn3-c3ccc(Cl)c(O)c3)c(Cl)c2=O)c1 [Example 235, 3-{4-[(2-{[({[3-tert-butyl-1-(4-chloro-3-hydroxyphenyl)-1H-pyrazol-5-yl]amino}carbonyl)amino]methyl}-4-fluorobenzyl)-oxy]-3-chloro-6-methyl-2-oxopyridin-1(2H)-yl}-N-(2-methoxy-ethyl)-4-methylbenzamide] | 8.38
17 | COc1ccc(Cn2c(C)cc(OCc3ccccc3CNC(=O)Nc3cc(C(C)(C)C)nn3-c3cccc(O)c3)c(C)c2=O)cc1C#N [Example 252, 1-[3-tert-butyl-1-(3-hydroxyphenyl)-1H-pyrazol-5-yl]-3-[2-({[1-(3-cyano-4-methoxybenzyl)-3,6-dimethyl-2-oxo-1,2-dihydro-pyridin-4-yl]oxy}methyl)benzyl]urea] | 8.22
18 | Cc1ccc(C(=O)NCC(N)=O)cc1-n1c(C)cc(OCc2ccccc2CNC(=O)Nc2cc(C(C)(C)C)nn2-c2ccc(O)c(Cl)c2)c(Cl)c1=O [Example 233, N-(2-amino-2-oxoethyl)-3-{4-[(2-{[({[3-tert-butyl-1-(3-chloro-4-hydroxyphenyl)-1H-pyrazol-5-yl]amino}carbonyl)amino]-methyl}benzyl)oxy]-3-chloro-6-methyl-2-oxopyridin-1(2H)-yl}-4-methylbenzamide] | 8.82
19 | CSc1ccccc1Cn1c(C)cc(OCc2ccccc2CNC(=O)Nc2cc(C(C)(C)C)nn2-c2cccc(O)c2)c(Cl)c1=O [Example 271, 1-[3-tert-butyl-1-(3-hydroxyphenyl)-1H-pyrazol-5-yl]-3-{2-[({3-chloro-6-methyl-1-[2-(methylthio)benzyl]-2-oxo-1,2-dihydropyridin-4-yl}oxy)methyl]benzyl}urea] | 7.85
20 | COc1ccc(Cn2c(C)cc(OCc3ccccc3CNC(=O)Nc3cc(C(C)(C)C)nn3-c3ccc(Cl)c(O)c3)c(C)c2=O)cc1Cl [Example 260, 1-[3-tert-butyl-1-(4-chloro-3-hydroxyphenyl)-1H-pyrazol-5-yl]-3-[2-({[1-(3-chloro-4-methoxybenzyl)-3,6-dimethyl-2-oxo-1,2-dihydropyridin-4-yl]oxy}methyl)benzyl]urea] | 7.81
21 | Cc1ccc(C(=O)NCC(O)CO)cc1-n1c(C)cc(OCc2ccccc2CNC(=O)Nc2cc(C(C)(C)C)nn2-c2ccc(O)c(Cl)c2)c(Cl)c1=O (stereo not drawn) [Example 227, 3-{4-[(2-{[({[3-tert-butyl-1-(3-chloro-4-hydroxyphenyl)-1H-pyrazol-5-yl]amino}carbonyl)amino]methyl}benzyl)oxy]-3-chloro-6-methyl-2-oxopyridin-1(2H)-yl}-N-(2,3-dihydroxy-propyl)-4-methylbenzamide] | 8.70
